In US12617770B2, “IRAK inhibitor and preparation method therefor and use thereof” (WUHAN CREATERNA SCIENCE AND TECHNOLOGY CO., LTD., priority 2019, dated 2026):

Biological target: T1, CYP3A4 (Homo sapiens, UniProt P08684)
T1 construct: The test compounds were co-incubated with the human liver microsomes and a probe substrate midazolam (CYP3A4); tissue Corning (USA); host or cells: mixed (pooled) human liver microsomes
Experiment: Time-dependent inhibition (TDI) of CYP3A4 in human liver microsomes
Assay type: in vitro ADME
Settings: probe substrate midazolam
Procedure: This study was intended to investigate the time-dependent inhibition effect of the compounds on CYP3A4 in human P450 superfamily. The mixed human liver microsomes used in this assay were purchased from Corning (USA).
The test compounds were co-incubated with the human liver microsomes and a probe substrate midazolam (CYP3A4), and the concentration of the test compounds was set at 30 μM. The reaction was initiated by adding coenzyme NADPH, and terminated by adding acetonitrile dossolved with internal standard in advance. After the proteins were precipitated, the supernatant was centrifuged. The characteristic metabolite 1-hydroxy-midazolam (CYP3A4) in the supernatant was analyzed by LC-MS/MS. The influence of the test compounds on production of the characteristic metabolites was finally analyzed on the basis of the data obtained. A selective inhibitor (verapamil for CYP3A4-M) was used as positive control.

T1 sequence (P08684 whole entry): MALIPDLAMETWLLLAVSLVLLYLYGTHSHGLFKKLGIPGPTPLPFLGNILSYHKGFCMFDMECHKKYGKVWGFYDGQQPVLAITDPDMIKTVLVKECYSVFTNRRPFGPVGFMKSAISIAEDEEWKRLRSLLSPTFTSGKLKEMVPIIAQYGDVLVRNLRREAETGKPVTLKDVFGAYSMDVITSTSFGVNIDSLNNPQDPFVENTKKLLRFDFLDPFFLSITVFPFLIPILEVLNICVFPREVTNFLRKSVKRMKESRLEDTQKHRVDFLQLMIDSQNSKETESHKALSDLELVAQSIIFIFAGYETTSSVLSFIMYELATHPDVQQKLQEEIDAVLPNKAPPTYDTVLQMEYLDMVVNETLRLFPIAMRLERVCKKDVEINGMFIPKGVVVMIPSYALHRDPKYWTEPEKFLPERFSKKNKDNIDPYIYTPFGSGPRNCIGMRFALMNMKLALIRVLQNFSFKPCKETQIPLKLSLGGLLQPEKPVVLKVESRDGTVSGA

- TDI (3A4, 30 μM): −3.68%
SMILES: COc1cc2nn([C@H]3CC[C@](C)(O)CC3)cc2cc1NC(=O)c1cccc(C)[n+]1[O-] [Compound 001, 2-((2-((1r,4r)-4-hydroxy-4-methylcyclohexyl)-6-methoxy-2H-indazol-5-yl)carbamoyl)-6-methylpyridine 1-oxide]
